Experimental findings from PMC10818931, “In Vitro Evaluation of Drug–Drug Interaction Potential of Epetraborole, a Novel Bacterial Leucyl-tRNA Synthetase Inhibitor” (Pharmaceuticals, 2024) are described below.

The structures appear in SMILES notation. Bounds are passed on as bounds.

Type in all cases: in vitro ADME
The target of one data set is T1, MATE1 (Homo sapiens, UniProt Q96FL8).
T1 construct: host or cells: MDCK
T1 sequence (Q96FL8 1-570): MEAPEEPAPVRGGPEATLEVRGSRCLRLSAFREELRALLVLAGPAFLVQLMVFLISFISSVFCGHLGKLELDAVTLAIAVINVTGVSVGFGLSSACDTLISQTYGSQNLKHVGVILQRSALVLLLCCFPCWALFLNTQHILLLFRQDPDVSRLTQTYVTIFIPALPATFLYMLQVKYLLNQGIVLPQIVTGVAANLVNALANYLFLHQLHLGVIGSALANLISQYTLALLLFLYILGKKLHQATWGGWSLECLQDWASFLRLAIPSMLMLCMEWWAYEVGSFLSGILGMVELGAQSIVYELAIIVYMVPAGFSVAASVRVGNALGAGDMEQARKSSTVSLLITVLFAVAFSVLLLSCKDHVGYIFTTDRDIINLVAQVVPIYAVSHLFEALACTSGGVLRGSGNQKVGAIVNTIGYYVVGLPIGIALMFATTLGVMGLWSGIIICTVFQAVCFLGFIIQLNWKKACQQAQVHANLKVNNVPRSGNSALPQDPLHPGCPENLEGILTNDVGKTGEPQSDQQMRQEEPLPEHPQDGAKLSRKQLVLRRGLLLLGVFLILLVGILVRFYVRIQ
Nature of the data set: Substrate potential in transporter-transfected MDCK cells. As to the method: (§1) The uptake of a probe substrate of each transporter was conducted in parallel with the test article in separate wells of the same batch of vector control and transporter-transfected cells. Cells were incubated at 37 °C with 5% CO2 with 500 μL of dosing solution for different periods of time.

The target in the next data set is T2, MATE2K (Homo sapiens, UniProt Q86VL8).
T2 construct: host or cells: MDCK
Described as above. Here is the method: as §1

The target of data set [1] is T3, OAT3 (Homo sapiens, UniProt Q8TCC7).
T3 construct: host or cells: MDCK
T3 sequence (Q8TCC7 1-542): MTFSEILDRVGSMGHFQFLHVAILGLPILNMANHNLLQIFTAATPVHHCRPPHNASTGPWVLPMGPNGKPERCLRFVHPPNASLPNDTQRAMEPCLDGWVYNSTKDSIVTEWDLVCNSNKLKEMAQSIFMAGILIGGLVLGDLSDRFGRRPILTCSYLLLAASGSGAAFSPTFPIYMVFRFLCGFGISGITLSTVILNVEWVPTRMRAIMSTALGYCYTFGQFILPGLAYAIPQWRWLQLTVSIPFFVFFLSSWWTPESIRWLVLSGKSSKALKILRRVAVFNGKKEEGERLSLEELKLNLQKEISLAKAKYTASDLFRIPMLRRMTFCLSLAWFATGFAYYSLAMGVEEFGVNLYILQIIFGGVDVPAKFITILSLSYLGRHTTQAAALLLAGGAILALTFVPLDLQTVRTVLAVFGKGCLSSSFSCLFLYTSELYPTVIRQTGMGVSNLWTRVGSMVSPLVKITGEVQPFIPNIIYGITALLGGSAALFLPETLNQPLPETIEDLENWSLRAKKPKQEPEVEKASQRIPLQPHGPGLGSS
The data set is described as above. As to the method: as §1

For the next data set, the target named is T4, OATP1B3 (Homo sapiens, UniProt Q9NPD5).
T4 construct: host or cells: MDCK
T4 sequence (Q9NPD5 1-702): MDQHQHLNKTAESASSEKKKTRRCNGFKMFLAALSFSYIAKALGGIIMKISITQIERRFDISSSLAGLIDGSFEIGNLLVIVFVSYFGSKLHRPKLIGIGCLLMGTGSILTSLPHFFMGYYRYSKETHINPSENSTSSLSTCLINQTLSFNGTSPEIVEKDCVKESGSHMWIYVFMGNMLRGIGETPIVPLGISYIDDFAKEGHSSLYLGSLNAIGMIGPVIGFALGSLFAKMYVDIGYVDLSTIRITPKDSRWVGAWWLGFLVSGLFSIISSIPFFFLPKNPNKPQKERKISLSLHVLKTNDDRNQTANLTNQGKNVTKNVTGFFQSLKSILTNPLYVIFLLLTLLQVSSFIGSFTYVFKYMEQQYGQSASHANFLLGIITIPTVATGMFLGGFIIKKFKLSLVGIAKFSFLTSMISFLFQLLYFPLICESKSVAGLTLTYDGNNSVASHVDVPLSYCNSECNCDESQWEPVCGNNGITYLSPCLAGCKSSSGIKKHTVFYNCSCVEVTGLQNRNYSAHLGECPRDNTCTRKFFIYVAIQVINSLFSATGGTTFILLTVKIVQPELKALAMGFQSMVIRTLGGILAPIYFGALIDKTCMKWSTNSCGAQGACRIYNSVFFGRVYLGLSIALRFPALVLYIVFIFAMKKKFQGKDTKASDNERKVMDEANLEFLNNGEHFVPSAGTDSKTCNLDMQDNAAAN
Described as above. Here is the method:
as §1

The target in data set [2] is T3, OAT3. Nature of the data set: Uptake transporter inhibition in transfected HEK 293 or MDCK cells. Conditions: for Inhibition (in words): concentrations up to 1000 μM; for IC50: read-out: as an Inhibitor, IC50. As to the method: Cell monolayers were preincubated (37 °C) for 15 to 30 min in a transport medium containing the target concentration of EBO or a specific inhibitor without substrate. Following the removal of preincubation solutions, appropriate working solutions containing EBO at the target concentration plus the probe substrate were added to the wells in triplicate. Separate sets of triplicate wells were designated for probe substrate only and probe substrate plus the specific inhibitors, to determine the maximal uptake rate and maximal inhibition of uptake, respectively. After incubation at 37 °C for each transporter, the working solution was removed from each well and the experiment was stopped by washing three times with cold (4 °C) DPBS. Depending on the substrate label, cells were either lysed for the analysis of total radioactivity (liquid scintillation counter) or LC-MS/MS methods. For measuring relative fluorescence (FLUOstar Galaxy, Cary, NC, USA), cells were not lysed.

T2 sequence (Q86VL8 1-566 isoform Q86VL8-3): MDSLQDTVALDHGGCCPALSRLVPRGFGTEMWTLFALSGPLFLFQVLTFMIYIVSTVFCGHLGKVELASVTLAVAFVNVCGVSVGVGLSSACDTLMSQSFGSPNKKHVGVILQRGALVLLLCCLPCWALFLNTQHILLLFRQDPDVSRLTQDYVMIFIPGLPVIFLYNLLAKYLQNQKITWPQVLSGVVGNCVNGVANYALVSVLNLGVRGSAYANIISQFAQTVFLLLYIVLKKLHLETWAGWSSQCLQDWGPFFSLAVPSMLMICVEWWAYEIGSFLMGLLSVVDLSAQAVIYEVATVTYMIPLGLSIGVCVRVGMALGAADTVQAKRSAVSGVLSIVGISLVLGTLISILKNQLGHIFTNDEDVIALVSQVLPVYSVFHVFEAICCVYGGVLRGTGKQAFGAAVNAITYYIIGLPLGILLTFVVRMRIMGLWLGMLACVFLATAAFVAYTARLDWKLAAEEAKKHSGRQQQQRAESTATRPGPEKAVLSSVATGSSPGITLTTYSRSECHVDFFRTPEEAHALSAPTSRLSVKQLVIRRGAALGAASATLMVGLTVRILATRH

Broadly, the IC50 is the point on the concentration scale where inhibition reaches its midpoint. For the compound `NC[C@H]1OB(O)c2c(OCCC(=O)O)cccc21` [M3], the Influx ratio on MATE1, on MATE2K, on OAT3 [1] and on OATP1B3 was < 2 in each case. The “as a Substrate” value on MATE1, on MATE2K, at OAT3 [1] and on OATP1B3 was “No” throughout. The “Inhibition (in words)” value on OAT3 [2] is recorded as “did not inhibit”. Further, the IC50 at OAT3 [2] is > 1000 µM.

In the case of `NC[C@H]1OB(O)c2c(OCCCO)cccc21` [EBO, Epetraborole], the Influx ratio on MATE1, on MATE2K, on OAT3 [1] and on OATP1B3 was < 2 each time. Moreover, the “as a Substrate” value on MATE1, on MATE2K, on OAT3 [1] and at OATP1B3 was “No” throughout. Moreover, on OAT3 [2], the “Inhibition (in words)” value is “did not inhibit”. At OAT3 [2], the IC50 was > 1000 µM.
